Data set [1] deals with adjuvant-induced arthritis. The experiment in a line: Adjuvant-induced arthritis model in Lewis rats (Table 7). The settings on record: p.o. 5 days, DiPIPs 100 mg/kg, Voltaren and indomethacin 6 mg/kg; for % FINAL INHIBITION: Day 28-0.
Procedure: Four groups consisting of 6 male Lewis rats weighing 150-200 g were injected subcutaneously at the base of the tail with 0.1 ml of CFA. Drugs to be assayed were administered 5 days beginning on the day of the adjuvant injection. The paw volume of the right and left rear paw of each rat were measured on the day of adjuvant injection and at regular intervals for 30 days thereafter.
The emulsion was injected subcutaneously at the base of the tail and induced the arthritic state. Measurements of paw volume were made for 30 days to monitor paw swelling. Drug treatment began on Day 0.
Four groups consisting of 10 male Lewis rats weighing 150-200 g were injected subcutaneously at the base of the tail with 0.1 ml of CFA. Drugs to be assayed were administered for 5 days beginning on the day of the adjuvant injection.
For data set [2], the system named is adjuvant-induced arthritis. The settings on record: for Inhibition % B (5-0): 5th day after 5 doses; for Inhibition % B (5-0) / Inhibition % A (1-0): p.o.: PIP[4,4,4] 100, hydrocortisone 30, indomethacin 5 mg/kg; for Inhibition % B (5-0) / Inhibition % A (1-0) / Inhibition % C (5-1) / Inhibition % D (14-0) / Inhibition % F (18-14) / Inhibition % E (18-0): >30% significant; for Net swelling of paw volume A (1-0), average: Day 1 - Day 0, average; for Net swelling of paw volume B (5-0), average: Day 5 - Day 0, average; for Net swelling of paw volume B (5-0): Day 5 - Day 0, individual rat; for Net swelling of paw volume C (5-1), average: Day 5 - Day 1, average; for Net swelling of paw volume C (5-1): Day 5 - Day 1, individual rat; for Polyarthritis E (ears) / Polyarthritis N (noses) / Polyarthritis P (paws) / Polyarthritis T (tails): Day 19, individual rat; for Inhibition % A (1-0): first day, after one dose; for Inhibition % C (5-1): paw volume change Day 1 to Day 5; for Net swelling of paw volume D (14-0), average / Net swelling of paw volume D (14-0) / Inhibition % D (14-0) / Inhibition % F (18-14) / Net swelling of paw volume E (18-0), average / Net swelling of paw volume E (18-0) / Net swelling of paw volume F (18-14), average / Net swelling of paw volume F (18-14) / Inhibition % E (18-0): untreated paw; for Net swelling of paw volume D (14-0), average: Day 14 - Day 0, average; for Net swelling of paw volume D (14-0): Day 14 - Day 0, individual rat; for Inhibition % D (14-0): Day 14 relative to Day 0; for Inhibition % F (18-14): Day 14 to Day 18; for Net swelling of paw volume E (18-0), average: Day 18 - Day 0, average; for Net swelling of paw volume E (18-0): Day 18 - Day 0, individual rat; for Net swelling of paw volume F (18-14), average: Day 18 - Day 14, average; for Net swelling of paw volume F (18-14): Day 18 - Day 14, individual rat; for Inhibition % E (18-0): Day 18 relative to Day 0; for Weight gain reductions (in words): vs vehicle-treated animals, 18 day study.

Data set [3] deals with carrageenan-induced edema in rat paw. The experiment in a line: Inhibition of carrageenan-induced paw edema in rats. The settings on record: vs vehicle control; aspirin 150 mg/kg p.o., hydrocortisone 25 mg/kg p.o., PIP[4,4,4] 30 mg/kg i.p.; >30% significant.
The mark [4] stands for this setting: p.o. × 5: PIP[4,4,4] 100, hydrocortisone 30, indomethacin 5 mg/kg.

Several values for one entry are separate records, joined by “and”; a condition that tells them apart may be missing. Equal entries are not always repeated.

Regarding `COc1ccc2c(c1)c(CC(=O)O)c(C)n2C(=O)c1ccc(Cl)cc1` [Indomethacin], in data set [1], the “% FINAL INHIBITION” value was determined as 93%, the “FINAL DAY 28-0 (paw volume)” value came out at 0.14 and the “INITIAL DAY 14-0 (paw volume)” value was “.004”. Moreover, in data set [2], the “Inhibition % B (5-0)” value is given as 48%, the “Inhibition % A (1-0)” value was determined as 36% and the “Weight gain reductions (in words)” value is “did not affect weight gain reductions”. In data set [2] (setting [4]), the “Net swelling of paw volume A (1-0), average” value is 0.53 mL; the “Net swelling of paw volume B (5-0), average” value turned out to be 0.85 mL; the “Net swelling of paw volume B (5-0)” value is 0.84 mL and 0.86 mL and 0.72 mL and 0.81 mL and 1.02 mL; the “Net swelling of paw volume C (5-1), average” value came to 0.32 mL. Further, in data set [2] (setting [4]), the “Net swelling of paw volume C (5-1)” value was 0.31 mL and 0.28 mL and 0.14 mL and 0.30 mL and 0.57 mL; the “Polyarthritis E (ears)” value is recorded as “-”; the “Polyarthritis N (noses)” value is “-”; the “Polyarthritis P (paws)” value was “-”. Also, in data set [2] (setting [4]), the “Polyarthritis T (tails)” value is listed as “-”; the “Inhibition % C (5-1)” value turned out to be 61%; the “Net swelling of paw volume D (14-0), average” value amounted to 0.28 mL; the “Net swelling of paw volume D (14-0)” value is 0.20 mL and 0.40 mL and 0.26 mL and 0.42 mL and 0.12 mL. For the same compound, in data set [2] (setting [4]), the “Inhibition % D (14-0)” value was 38%; the “Inhibition % F (18-14)” value is given as 50%; the “Net swelling of paw volume E (18-0), average” value is 0.43 mL; the “Net swelling of paw volume E (18-0)” value is 0.43 mL and 0.50 mL and 0.51 mL and 0.49 mL and 0.22 mL. For the same compound, in data set [2] (setting [4]), the “Net swelling of paw volume F (18-14), average” value was found to be 0.15 mL; the “Net swelling of paw volume F (18-14)” value is 0.23 mL and 0.10 mL and 0.25 mL and 0.07 mL; the “Inhibition % E (18-0)” value was 43%. The “Net swelling of paw volume A (1-0)” value in data set [2] (Day 1 - Day 0, individual rat, p.o. × 5: PIP[4,4,4] 100, hydrocortisone 30, indomethacin 5 mg/kg) is 0.53 mL and 0.58 mL and 0.51 mL and 0.45 mL. In addition, the “B.W. Gain (18-0), average” value in data set [2] (rat, in vivo) amounted to 8 g.
Consider `C[C@]12CCC(=O)C=C1CC[C@@H]1[C@@H]2[C@@H](O)C[C@@]2(C)[C@H]1CC[C@]2(O)C(=O)CO` [Hydrocortisone], for which the “% Edema inhibition” value in data set [3] came to 32%. Moreover, in data set [2], the “Inhibition % B (5-0)” value is 36%, the “Inhibition % A (1-0)” value came to 12% and the “Weight gain reductions (in words)” value was “did not affect weight gain reductions”. Further, in data set [2] (setting [4]), the “Net swelling of paw volume A (1-0), average” value was 0.73 mL; the “Net swelling of paw volume B (5-0), average” value came to 1.06 mL; the “Net swelling of paw volume B (5-0)” value is 0.89 mL and 0.96 mL and 0.86 mL and 0.98 mL and 1.61 mL; the “Net swelling of paw volume C (5-1), average” value stood at 0.33 mL. In data set [2] (setting [4]), the “Net swelling of paw volume C (5-1)” value was 0.11 mL and 0.31 mL and 0.16 mL and 0.91 mL; the “Polyarthritis E (ears)” value was “-”; the “Polyarthritis N (noses)” value was “-”; the “Polyarthritis P (paws)” value is “+ and -”. In addition, in data set [2] (setting [4]), the “Polyarthritis T (tails)” value is “-”; the “Inhibition % C (5-1)” value came to 60%; the “Net swelling of paw volume D (14-0), average” value was determined as 0.35 mL; the “Net swelling of paw volume D (14-0)” value was 0.43 mL and 0.31 mL and 0.30 mL and 0.38 mL and 0.33 mL. In data set [2] (setting [4]), the “Inhibition % D (14-0)” value was 22%; the “Inhibition % F (18-14)” value was 37%; the “Net swelling of paw volume E (18-0), average” value is 0.54 mL; the “Net swelling of paw volume E (18-0)” value is 0.53 mL and 0.38 mL and 0.66 mL and 0.72 mL and 0.41 mL. Also, in data set [2] (setting [4]), the “Net swelling of paw volume F (18-14), average” value was 0.19 mL; the “Net swelling of paw volume F (18-14)” value was 0.10 mL and 0.07 mL and 0.36 mL and 0.34 mL and 0.08 mL; the “Inhibition % E (18-0)” value is 28%.
Consider `C(CCNC1CCNCC1)CNC1CCNCC1` [DiPIP[3,4,3], N,N'-Bis(4-piperidinyl)-1,4-butanediamine], for which the “% FINAL INHIBITION” value in data set [1] is 70% and 41%.
With `CC(=O)Oc1ccccc1C(=O)O` [Aspirin], the “% Edema inhibition” value in data set [3] is listed as 46%.
With `O=C(O)Cc1ccccc1Nc1c(Cl)cccc1Cl` [Voltaren], in data set [1], the “% FINAL INHIBITION” value is reported as 67%, the “FINAL DAY 28-0 (paw volume)” value is “.629” and the “INITIAL DAY 14-0 (paw volume)” value is “.232”.
